Source: the supplement of paper PMC10307832

Experiments:
Test in all cases: relative viability (nuclei count vs DMSO), 5 days (fraction); higher = more cells survive
Fedratinib + Trametinib = compound: Cc1cnc(Nc2ccc(OCCN3CCCC3)cc2)nc1Nc1cccc(S(=O)(=O)NC(C)(C)C)c1 [Fedratinib] + CC(=O)Nc1cccc(-n2c(=O)n(C3CC3)c(=O)c3c(Nc4ccc(I)cc4F)n(C)c(=O)c(C)c32)c1 [Trametinib] (partner 0.02 µM)
In short: (§1)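 Medians of duplicate plates are given as relative viability. That measure is the nuclei count in treated wells divided by the count in vehicle wells. Counts were taken on 4× images of lung cancer cell lines in 1536-well plates, 5 days after pin-tool dosing the day after seeding with one drug alone or a fixed anchor-drug dose plus five library-drug doses (not always all listed) in √10 steps.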

GW-2580 + Foretinib = compound: COC1=CC=C(C=C1)COC2=C(C=C(C=C2)CC3=CN=C(N=C3N)N)OC [GW-2580] + COc1cc2c(Oc3ccc(NC(=O)C4(C(=O)Nc5ccc(F)cc5)CC4)cc3F)ccnc2cc1OCCCN1CCOCC1 [Foretinib] (partner 0.25 µM)
In short: as §1

GW-2580 + Navitoclax = compound: COC1=CC=C(C=C1)COC2=C(C=C(C=C2)CC3=CN=C(N=C3N)N)OC [GW-2580] + CC1(C)CCC(c2ccc(Cl)cc2)=C(CN2CCN(c3ccc(C(=O)NS(=O)(=O)c4ccc(N[C@H](CCN5CCOCC5)CSc5ccccc5)c(S(=O)(=O)C(F)(F)F)c4)cc3)CC2)C1 [Navitoclax] (partner 0.5 µM)
In short: as §1

Fedratinib = compound: Cc1cnc(Nc2ccc(OCCN3CCCC3)cc2)nc1Nc1cccc(S(=O)(=O)NC(C)(C)C)c1 [Fedratinib]
In short: (§2)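 Only plates meeting two conditions passed: control CV below 25% and at least one doubling. Lung cancer cell lines, kept overnight at 37 °C in 1536-well plates, were pinned with five library-drug doses (not always all listed) √10 apart on vehicle-anchored plates and grown 5 days without medium change. A one-step fix, permeabilisation and Hoechst stain preceded 4× imaging and MetaXpress nuclear counting. Viability equals treated-well nuclei divided by vehicle-well nuclei, as the median over plates.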

GW-2580 = compound: COC1=CC=C(C=C1)COC2=C(C=C(C=C2)CC3=CN=C(N=C3N)N)OC [GW-2580]
In short: as §2

| Cell Line | relative viability (Fedratinib + Trametinib; first compound 0.1 µM) | relative viability (Fedratinib + Trametinib; first compound 0.3162 µM) | relative viability (Fedratinib + Trametinib; first compound 1 µM) | relative viability (GW-2580 + Foretinib; first compound 0.08 µM) | relative viability (GW-2580 + Foretinib; first compound 0.8 µM) | relative viability (GW-2580 + Foretinib; first compound 2.53 µM) | relative viability (GW-2580 + Foretinib; first compound 8 µM) | relative viability (GW-2580 + Navitoclax; first compound 0.08 µM) | relative viability (GW-2580 + Navitoclax; first compound 0.8 µM) | relative viability (GW-2580 + Navitoclax; first compound 2.53 µM) | relative viability (GW-2580 + Navitoclax; first compound 8 µM) | relative viability (Fedratinib; 0.1 µM) | relative viability (Fedratinib; 0.3162 µM) | relative viability (Fedratinib; 1 µM) | relative viability (GW-2580; 0.08 µM) | relative viability (GW-2580; 0.8 µM) | relative viability (GW-2580; 2.53 µM) | relative viability (GW-2580; 8 µM) |
| --- | --- | --- | --- | --- | --- | --- | --- | --- | --- | --- | --- | --- | --- | --- | --- | --- | --- | --- |
| NCI-H596 | 0.739 | 0.804 | 0.755 | 0.795 | 0.88 | 0.957 | 0.823 | 1.05 | 0.982 | 0.94 | 0.9 | 0.99 | 0.973 | 0.851 | 1.03 | 1.07 | 1.02 | 1.18 |
| NCI-H322M | 0.439 | 0.481 | 0.508 | 1.02 | 1.06 | 0.924 | 0.979 | 1.07 | 1.31 | 1.11 | 1.22 | 0.873 | 1 | 0.678 | 0.941 | 1.1 | 0.971 | 0.946 |
| NCI-H2228 | 0.629 | 0.306 | 0.404 | 0.947 | 0.95 | 0.879 | 0.848 | 1.01 | 0.84 | 0.869 | 0.723 | 0.884 | 0.785 | 0.723 | 1.18 | 1.16 | 0.921 | 0.882 |
| NCI-H647 | 0.521 | 0.493 | 0.366 | 1.25 | 1.16 | 1.13 | 1.37 | 1.09 | 1.19 | 1.18 | 1.3 | 0.867 | 0.952 | 0.777 | 1.12 | 1.14 | 0.846 | 0.97 |
| SK-MES-1 | 0.547 | 0.581 | 0.476 | 1.03 | 0.934 | 0.962 | 0.915 | 1.4 | 1.18 | 1.1 | 1.33 | 0.977 | 1.02 | 0.911 | 1.1 | 1.08 | 0.96 | 0.984 |
| NCI-H2170 | 0.931 | 0.887 | 0.847 | 1.05 | 0.957 | 0.958 | 1.04 | 0.5 | 0.68 | 0.467 | 0.657 | 1.05 | 1.01 | 0.9 | 1.02 | 1.02 | 0.948 | 0.972 |
| NCI-H2085 | 0.598 | 0.512 | 0.458 | 1 | 0.895 | 1.08 | 0.758 | 1.09 | 1.11 | 1.03 | 1.07 | 0.929 | 1.02 | 0.883 | 1.05 | 1.03 | 0.987 | 0.954 |
| SW 1573 | 0.489 | 0.538 | 0.402 | 1.02 | 1.02 | 1.02 | 0.852 | 1 | 1.04 | 0.869 | 0.929 | 0.987 | 0.998 | 0.897 | 1.05 | 0.994 | 0.868 | 0.946 |
| NCI-H727 | 0.38 | 0.426 | 0.392 | 0.694 | 1.05 | 0.834 | 0.777 | 0.454 | 0.538 | 0.402 | 0.384 | 1.03 | 0.928 | 0.813 | 1.14 | 1.03 | 0.971 | 0.823 |
| NCI-H441 | 0.348 | 0.345 | 0.301 | 1.03 | 1.16 | 1.06 | 1.1 | 1.03 | 0.33 | 0.575 | 0.515 | 1.03 | 1.04 | 0.734 | 1.07 | 0.924 | 1.01 | 1.14 |
| LOU-NH91 | 0.753 | 0.781 | 0.752 | 0.957 | 0.969 | 0.94 | 1.02 | 0.683 | 0.731 | 0.618 | 0.752 | 0.893 | 1.08 | 0.723 | 0.987 | 1.05 | 0.843 | 0.973 |
| NCI-H3122 | 0.242 | 0.205 | 0.193 | 1.07 | 0.991 | 0.982 | 0.961 | 1.04 | 1.06 | 1.13 | 0.892 | 1.05 | 1.02 | 0.892 | 1.03 | 1.09 | 1.06 | 1.01 |
| NCI-H460 | 0.163 | 0.156 | 0.061 | 1.02 | 1.09 | 0.987 | 0.924 | 1.46 | 1.37 | 0.941 | 1.15 | 0.997 | 0.974 | 0.979 | 1.07 | 1.05 | 1.01 | 0.952 |
| NCI-H1793 | 0.493 | 0.399 | 0.416 | 0.694 | 0.758 | 0.584 | 0.58 | 0.433 | 0.266 | 0.833 | 0.415 | 0.884 | 0.886 | 0.619 | 0.95 | 1.05 | 0.711 | 0.852 |
| NCI-H1734 | 0.605 | 0.583 | 0.636 | 0.894 | 0.855 | 0.783 | 0.717 | 1.04 | 0.935 | 0.857 | 0.76 | 1 | 0.97 | 0.853 | 0.987 | 0.986 | 0.912 | 0.914 |
| LXF-289 | 0.676 | 0.61 | 0.621 | 1.06 | 0.99 | 0.957 | 0.891 | 1.02 | 0.963 | 0.948 | 0.821 | 0.978 | 0.997 | 0.974 | 1.03 | 1.08 | 0.988 | 0.937 |
| H3255 | 0.506 | 0.69 | 0.706 | 0.859 | 0.835 | 0.742 | 0.829 | 0.5 | 0.633 | 0.4 | 0.452 | 0.963 | 0.923 | 0.86 | 0.954 | 1.2 | 0.894 | 0.85 |
| 201T | 0.697 | 0.769 | 0.718 | 1.09 | 1.1 | 1.24 | 1.13 | 1.24 | 1.25 | 1.23 | 1.2 | 0.963 | 1 | 0.918 | 0.974 | 1.13 | 1.06 | 0.959 |
| NCI-H2126 | 0.493 | 0.582 | 0.541 | 1.32 | 1.13 | 0.925 | 1.28 | 0.915 | 0.875 | 0.808 | 0.921 | 0.95 | 0.98 | 0.927 | 1.02 | 1.01 | 0.979 | 1.05 |
| HOP-62 | 0.355 | 0.392 | 0.393 | 1.27 | 1.25 | 1.02 | 1.11 | 1.15 | 1.05 | 0.984 | 1.26 | 1.01 | 0.907 | 0.987 | 1.06 | 1.12 | 0.982 | 1.03 |
| CAL-12T | 0.4 | 0.332 | 0.304 | 1.2 | 1.25 | 1.11 | 1.06 | 1.27 | – | 1.22 | 1.34 | 0.93 | 0.996 | 0.859 | 0.995 | 1.03 | 0.933 | 1.01 |
| NCI-H520 | 0.476 | 0.801 | 0.63 | 0.804 | 0.627 | 0.783 | 0.762 | 1.18 | 1.3 | 1.45 | 1.25 | 0.93 | 0.997 | 0.9 | 1.09 | 1.13 | 0.894 | 1.12 |
| NCI-H1755 | 0.822 | 0.696 | 0.73 | 1.02 | 0.967 | 0.907 | 0.679 | 1.04 | 1.04 | 0.894 | 0.831 | 0.991 | 1 | 0.909 | 1.06 | 1.07 | 0.944 | 0.878 |
| NCI-H2023 | 0.588 | 0.626 | 0.488 | 0.735 | 1.02 | 0.841 | 0.779 | 0.914 | 1.06 | 0.973 | 1.01 | 1.02 | 0.962 | 0.754 | 1.12 | 1.07 | 0.933 | 1.06 |
| NCI-H2009 | 0.204 | 0.286 | 0.216 | 1.31 | 1.25 | 1.21 | 1.17 | 1.25 | 1.22 | 1.15 | 1.02 | 0.956 | 1.08 | 0.987 | 1.06 | 0.996 | 0.967 | 0.888 |
